Laboratory results from publication PMC11284600, “Many human pharmaceuticals are weak inhibitors of the cytochrome P450 system in rainbow trout (Oncorhynchus mykiss) liver S9 fractions” (Frontiers in Toxicology, 2024).
Where a name gives a salt, the structure may show the parent alone. Read-outs that look alike come from different tables or passages of the source. Each block holds one compound with its values, some of them ahead of it.

How the values were obtained:
[1] = Unbound fraction in RT-S9 by rapid equilibrium dialysis; assay type: in vitro ADME, rainbow trout (Oncorhynchus mykiss); settings: 10 µM test substance, 1 mg/mL RT-S9, pH 7.8, 11°C, n = 3, read-out: Unbound fraction (fU,RT-S9)
Experimental: The unbound (free) fractions of the test substances in RT-S9 (fU,RT-S9) were determined using rapid equilibrium dialysis assay (RED, Thermo Fisher Scientific), which exploits two-compartment inserts separated by a dialysis membrane with a molecular weight cut-off of 8,000 Da. In the RED assay, each test pharmaceutical (10 μM) was incubated in triplicate with RT-S9 (1 mg/mL) in 50 mM potassium phosphate buffer (pH 7.8) in a total volume of 300 µL on one side of the membrane (protein-containing chamber), and 350 μL of the plain phosphate buffer on the other side (protein-free chamber). To reach equilibrium, the samples were incubated on an orbital shaker (C25KC Incubator shaker, New Brunswick Scientific, 120 rpm) at 11°C for 4 h. Next, 50 µL aliquots were collected from both chambers separately and diluted by adding 50 µL of the plain buffer (to the protein-containing sample) or 50 μL of 1 mg/mL RT-S9 in the buffer (to the protein-free sample). Finally, the RT-S9 protein was precipitated by the addition of acetonitrile (+200 μL) to both samples separately, followed by incubation on ice for 30 min and centrifugation (16100 g, 15 min). The test substance concentrations in the supernatants of both samples were determined using liquid chromatography. The instrumentation and the analytical methods used for chromatographic analyses are described in detail in the Supplementary Table S2. The unbound fractions of the test substances in RT-S9 (fU,RT-S9) were calculated according to Eq. 3: fU,RT−S9=1− PC−PF/PC (3) where [PC] and [PF] are the test substance concentrations in the samples collected from protein-containing and protein-free chambers, respectively. To account for the test substance’s binding to the RT-S9, the nominal IC50 values were corrected for unbound fraction (fU,RT-S9) according to Eq. 4: Unbound IC50=Nominal IC50×fU,RT−S9 (4)

[2] = design: method as in PubChem; settings: (e) empirical; ref PubChem; cited from earlier work
[3] = molecular target: T1, CYP3A-like 7-benzyloxy-4-trifluoromethylcoumarin O-debenzylase (BFCOD) activity in rainbow trout liver S9 fractions (Oncorhynchus mykiss, UniProt O42563); assay: BFCOD inhibition in RT-S9 (IC50 shift assay); settings: within the tested concentration range
T1 sequence (O42563 1-518): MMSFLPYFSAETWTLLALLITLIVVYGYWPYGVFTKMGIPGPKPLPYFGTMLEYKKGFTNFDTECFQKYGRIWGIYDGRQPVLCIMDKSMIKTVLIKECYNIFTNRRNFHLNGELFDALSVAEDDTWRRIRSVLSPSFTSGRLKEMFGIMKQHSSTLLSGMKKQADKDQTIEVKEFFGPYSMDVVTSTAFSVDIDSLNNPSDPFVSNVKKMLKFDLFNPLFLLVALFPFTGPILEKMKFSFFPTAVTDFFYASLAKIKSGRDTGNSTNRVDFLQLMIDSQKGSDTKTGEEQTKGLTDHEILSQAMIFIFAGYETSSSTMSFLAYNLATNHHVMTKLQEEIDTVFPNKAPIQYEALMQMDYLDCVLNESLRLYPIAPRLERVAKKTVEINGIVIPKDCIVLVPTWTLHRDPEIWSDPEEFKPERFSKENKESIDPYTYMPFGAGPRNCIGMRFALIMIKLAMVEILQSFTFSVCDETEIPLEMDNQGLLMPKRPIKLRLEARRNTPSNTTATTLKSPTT
Experimental: (§1) Commercially available rainbow trout (O. mykiss) liver S9 fractions were used as the enzyme source for the in vitro P450 inhibition assays (RTL-S9, total protein concentration 20 mg/mL, Primacyt Cell Culture Technology GmbH).
(§2) The inhibitory impacts of the test substances toward the rainbow trout liver P450 system in vitro were assessed based on EROD and BFCOD as the marker reactions for CYP1A- and CYP3A-like isoenzyme activities, respectively. […] In this study, the EROD (CYP1A) and BFCOD (CYP3A) activities were determined using 0.5 mg/mL RT-S9 (total protein) concentration and 1 or 2 mM NADPH, respectively. […] All incubations were performed in duplicate in a total volume of 100 µL of potassium phosphate buffer (0.1 M, pH 7.8), at 11°C ± 1°C on a thermostated orbital shaker (LLG Labware). The reactions were terminated by the addition of 37.5 μL of the quenching solution (0.5 M Trizma base/acetonitrile 20:80, v/v). […] The quantitation of the metabolites (resorufin or HFC) was based on linear regression of the respective standards prepared in the potassium phosphate buffer. Negative control incubations were performed separately without the marker substrate, without cofactors, and without RT-S9 to ensure that the detected fluorescence signals arise from the metabolic conversion of the marker substrates (ER or BFC) into their respective metabolites (resorufin or HFC, respectively).
(§3) In this study, the preincubation was performed using three different protocols A-C (Table 2). In the first protocol, the test substance (each separately at six different concentrations between 0.01 and 500 µM) and RT-S9 were preincubated without any cofactors, and the marker reaction was initiated by the addition of the marker substrate (ER or BFC) and NADPH (Protocol A). This enabled the determination of the inhibitory impact of the parent form of the test substance on the respective marker activity. In the second protocol, the test substance and RT-S9 were preincubated together with NADPH, and the marker reaction was initiated by the addition of the marker substrate (Protocol B). In this manner, the test substance could undergo P450 metabolism already during the preincubation step, which may reduce its concentration and thus the inhibitory impact toward the marker reactions, or result in the formation of reactive or inhibitory metabolites, which typically increases the inhibitory impact compared with the parent form (Protocol A). […] In this manner, the test substance could undergo both P450 and phase II metabolism already during the preincubation step, which may likewise reduce its concentration and inhibitory impact toward the marker reactions, and even help eliminate the possible reactive metabolites via glutathione conjugation. […] Additionally, positive control incubations of the marker substrates (ER or BFC) without the test substance (zero inhibitor concentration) were included in each series to determine the basal EROD or BFCOD activity in RT-S9.
(§4) The residual solvent concentration was kept constant at all inhibitor concentrations, including zero, to eliminate its impact on the IC50 concentrations derived from the empirical data. The IC50 shifts for Protocols B and C were calculated according to Eq. 2: IC50 shift=IC50,Protocol A/IC50,Protocol B or Protocol C (2)
(§5) In this manner, the impact of the test substance’s own metabolism (during the preincubation step) on the inhibitory impact could be evaluated.

Human CYP3A = settings: cited from earlier work; for Human CYP3A interactions: substrate status: ref Drugbank unless otherwise stated (Dragovic et al., 2013; Niwa et al., 2005)
[4] = system: CYP1A-like ethoxyresorufin O-deethylase (EROD) activity in rainbow trout liver S9 fractions; assay: EROD inhibition in RT-S9 (IC50 shift assay)
Experimental: as §1, §2, §3, §4, §5

CYP1A-like EROD activity = assay: in vitro; settings: both, Christophersen, Bornhoeved, rainbow trout (Oncorhynchus mykiss)
Experimental: as §1, §2, §3, §4, §5

[5] = system: CYP1A-like ethoxyresorufin O-deethylase (EROD) activity; assay: in vitro; settings: both, Christophersen, Bornhoeved, rainbow trout (Oncorhynchus mykiss); for inhibition at 10 min: pH 7.8
Experimental: as §1, §2, §3, §4, §5

[6] = molecular target: T2, CYP3A-like BFCOD activity (Oncorhynchus mykiss, UniProt O42563); assay: BFCOD inhibition in RT-S9 (IC50 shift assay); settings: both, Christophersen, Bornhoeved, rainbow trout (Oncorhynchus mykiss)
T2 sequence (O42563 1-518): T1 sequence (O42563 1-518)
Experimental: as §1, §2, §3, §4, §5

Human CYP1A = settings: ref Drugbank unless otherwise stated (Dragovic et al., 2013; Conard and Ober 1984; Niwa et al., 2005); cited from earlier work
[7] = rainbow trout liver S9 fractions (RT-S9)
[8] = pH 7.8, EROD inhibition in RT-S9, Unbound IC50
[9] = s9, pH 7.8, BFCOD inhibition in RT-S9, Nominal IC50, Protocol B: 30 min preincubation w/NADPH (2 mM)
[10] = s9, pH 7.8, BFCOD inhibition in RT-S9, Nominal IC50, Protocol C: 30 min preincubation w/all cofactors (NADPH, UDPGA, PAPS, glutathione)
[11] = pH 7.8, EROD inhibition in RT-S9, Nominal IC50

- fraction unbound at 4 h, 10 µM [1, 7]: 0.27 ± 0.05
Compound: Cc1ccccc1C(OCCN(C)C)c1ccccc1 (stereo not drawn) [Orphenadrine, orphenadrine citrate]
- LogKOW [2]: 3.77 (e)

- fraction unbound at 4 h, 10 µM ([1]; rainbow trout (Oncorhynchus mykiss), rainbow trout liver S9 fractions (RT-S9)): > 0.9
- fraction unbound at 4 h, 10 µM [1, 7]: 0.91 ± 0.42
Compound: CCN(CC)C(=S)SSC(=S)N(CC)CC [Disulfiram, disulfiram]
- LogKOW [2]: 3.88 (e)

Compound: CCNC(=O)CCC/C=C\C[C@@H]1[C@@H](/C=C/[C@@H](O)CCc2ccccc2)[C@H](O)C[C@@H]1O [Bimatoprost, bimatoprost]
- BFCOD inhibition in RT-S9 (in words) [3]: did not significantly inhibit
- LogKOW [2]: 3.2 (e)
- Human CYP3A interactions: substrate status (Human CYP3A): Substrate

Compound: Cc1ncsc1CCCl [Clomethiazole, clomethiazole hydrochloride]
- EROD inhibition in RT-S9 (in words) ([4]; within the tested concentration range): did not significantly inhibit
- EROD inhibition in RT-S9 (in words) ([4]; within the tested concentration range, listed as Chlomethiazole): no significant EROD inhibition
- BFCOD inhibition in RT-S9 (in words) [3]: did not significantly inhibit
- fraction unbound at 4 h, 10 µM ([1]; rainbow trout (Oncorhynchus mykiss)): > 0.9
- Human CYP3A interactions: substrate status (Human CYP3A): Substrate

Compound: COc1ccc2nc([S@@+]([O-])Cc3ncc(C)c(OC)c3C)[nH]c2c1 [Esomeprazole, esomeprazole magnesium hydrate]
- IC50 shift at 10 min (CYP1A-like EROD activity; s9, pH 7.8, EROD inhibition in RT-S9, IC50 shift (A/B)): 2.3 ± 0.7
- IC50 shift at 10 min (CYP1A-like EROD activity; s9, pH 7.8, EROD inhibition in RT-S9, IC50 shift (A/C)): 1.7
- inhibition at 10 min [5]: > 50%
- IC50 at 10 min [5, 8]: 3 ± 0.8 µM
- IC50 at 20 min ([6]; s9, pH 7.8): > 100 µM
- inhibition at 20 min ([6]; s9, pH 7.8): ≤ 50%
- IC50 shift at 20 min ([6]; s9, pH 7.8, BFCOD inhibition in RT-S9, IC50 shift (A/B), IC50 Protocol A / IC50 Protocol B, TDI if ≥1.5): 1.2 ± 0.2
- IC50 shift at 20 min ([6]; s9, pH 7.8, BFCOD inhibition in RT-S9, IC50 shift (A/C), IC50 Protocol A / IC50 Protocol C): 0.8
- IC50 at 20 min [6, 9]: > 100 µM
- IC50 at 20 min [6, 10]: > 100 µM
- fraction unbound at 4 h, 10 µM [1, 7]: 0.36 ± 0.08
- Human CYP3A interactions: substrate status (Human CYP3A): Substrate

Compound: COc1cc2nc(N3CCN(C(=O)c4ccco4)CC3)nc(N)c2cc1OC [Prazosin, prazosin hydrochloride]
- EROD inhibition in RT-S9 (in words) [4]: inhibited selectively only EROD activity
- inhibition at 10 min [5]: > 50%
- IC50 at 10 min [5, 11]: 21 ± 2 µM
- IC50 at 20 min ([6]; s9, pH 7.8): > 25 µM

Compound: CC(C)c1c(C(=O)Nc2ccccc2)c(-c2ccccc2)c(-c2ccc(F)cc2)n1CC[C@@H](O)C[C@@H](O)CC(=O)O [Atorvastatin, atorvastatin calcium trihydrate]
- LogKOW [2]: 6.36 (e)

Compound: CCN1CCCC1CNC(=O)c1cc(S(N)(=O)=O)ccc1OC (stereo not drawn) [Sulpiride, sulpiride]
- BFCOD inhibition in RT-S9 (in words) [3]: did not significantly inhibit

Compound: Clc1ccc2c(c1)CCc1cccnc1C2=C1CCNCC1 [Desloratadine, desloratadine]
- fraction unbound at 4 h, 10 µM [1, 7]: 0.15 ± 0.03

Compound: CN1CCN(C2=Nc3cc(Cl)ccc3Nc3ccccc32)CC1 [Clozapine, clozapine]
- inhibition at 10 min [5]: > 50%
- IC50 at 10 min [5, 11]: 46 ± 9 µM
- IC50 at 10 min [5, 8]: ~10 µM
- inhibition at 20 min ([6]; s9, pH 7.8): ≤ 50%
- IC50 at 20 min ([6]; s9, pH 7.8, BFCOD inhibition in RT-S9, Nominal IC50, Protocol A: 30 min preincubation without cofactors, extrapolated): > 100 µM
- IC50 at 20 min [6, 9]: > 100 µM
- IC50 at 20 min [6, 10]: > 100 µM
- IC50 at 20 min ([6]; s9, pH 7.8, BFCOD inhibition in RT-S9, Unbound IC50, nominal IC50 of Protocol A × fU,RT-S9 (Eq. 4)): 10 to 30 µM
- fraction unbound at 4 h, 10 µM [1, 7]: 0.21 ± 0.05
- LogKOW [2]: 3.23 (e)
- Human CYP1A interactions: substrate status (Human CYP1A): Substrate

- fraction unbound at 4 h, 10 µM [1, 7]: 0.24 ± 0.06
Compound: OCCOCCN1CCN(C2=Nc3ccccc3Sc3ccccc32)CC1 [Quetiapine, quetiapine hemihumarate]
- LogKOW [2]: 2.81 (e)

Compound: CN1CCCC(n2nc(Cc3ccc(Cl)cc3)c3ccccc3c2=O)CC1 (stereo not drawn) [Azelastine, azelastine hydrochloride]
- inhibition at 10 min [5]: > 50%
- IC50 at 10 min [5, 11]: 28 ± 2 µM
- IC50 at 10 min [5, 8]: 3.8 ± 0.5 µM
- IC50 at 20 min ([6]; s9, pH 7.8): > 100 µM
- inhibition at 20 min ([6]; s9, pH 7.8): ≤ 50%
- IC50 at 20 min [6, 9]: > 100 µM
- IC50 at 20 min [6, 10]: > 100 µM
- fraction unbound at 4 h, 10 µM [1, 7]: 0.14 ± 0.01
- Human CYP3A interactions: inhibitor status (Human CYP3A; ref Drugbank unless otherwise stated (Cohen et al., 2000; Guo et al., 1997; Niwa et al., 2005)): Inhibitor (m)
